pIC50: −log10 of the molar value.
System: HIV-1 (isolated standard virus Z2Z6) in PM1 cells
Assay: Anti-HIV evaluation in HIV-1-infected PM1 lymphocytic cell culture, cell viability read by MTT technique
Format: cell-based
Conditions: 10^4 cells/well, infected with HIV-1 isolate Z2Z6 at MOI 0.002, MTT cellular viability on 6th day after infection, cut-off 50% of emission of uninfected cells
Experimental: The pharmacological evaluation of the derivatives obtained was undertaken using test plates with a PM1 strain cell culture, lymphocytic strain established in culture, expressing the receptors CD4+ and co-receptors C5 and R4 of the HIV-1 and producers of syncytium, incubated with isolated standard virus Z2Z6 purified by passage in cell culture PM-1, having a titer of 3.96×10^2 TCID50/ml. The infection was accomplished by using plates having 96 wells, each containing 10^4 cells/well, infected with a MOI (Multiplicity Of Infection) of 0.002. The compounds being evaluated were initially diluted in dimethylsulphoxide (DMSO) to a final concentration of 10 mM and subsequently diluted in base medium RPMI 1640 to 20 μM.
Nine wells of the cells infected initially with the isolated HIV Z6 were exposed to decreasing concentrations of the compounds at 20 μM by a factor of 2 (base log 2). The culture medium employed was the RPMI 1640, added with 10% bovine foetal serum, antibiotics […]/penicilyne and L-glutamine.
The last and tenth well was kept as a control of the infection, without the presence of the drug blank. Each line of ten wells was produced in triplicate, for posterior statistical analysis. INDINAVIR was used as control, in the same dilutions as the compounds being tested. Cytotoxic analysis was carried out on a fourth set of 10 (ten) wells with cells by applying the compounds of the present invention diluted as described hereinabove. The plates were kept in an oven with 5% CO2, at a temperature of 37° C. and verified daily by optical phase microscopy for the analysis of the occurance of syncytia, which was confirmed on the 4th day after infection.
The results were analysed using a Microsoft Excel matrix, with correction of the blanks, and plotting of the emission frequency graph of the assay (in percentage, using as the 100% standard the emission from the viable cells of the wells without infection) as measurement of cellular viability. The value of 50% of emission of the standard was considered as cut-off point for the IC50 calculation. This value was attained, after plotting on the graph of the logarithmic regression curve equation, the points obtained from the IC curve prior to the formation of the plateau of the curve.

Compound	pIC50
CC(O)C(C)O (stereo not shown) [Compound 11b]	< 4.00

Same assay, conditions: 10^4 cells/well, infected with HIV-1 isolate Z2Z6 at MOI 0.002, MTT cellular viability on 6th day after infection, cut-off 50% of emission of uninfected cells, read-out: IC50

Compound	pIC50
1,4-di(benzylamine)-(2S,3S)-butane-2,3-diol [Compound 2a]	< 4.00
1N,4N-di[1-carbetoxy-2-methyl-(1S)-propyl]-2,3-dihydroxy-(2S,3S)-butanediamide [Compound 3b]	< 4.00
1N,4N-di[2-(4-hydroxyphenyl)-1-carbetoxy-1-(1S)-ethyl]-2,3-dihydroxy-(2S,3S)-butanediamide [Compound 3f]	4.30
CC(=O)O[C@H](C(=O)NCc1ccccc1)[C@H](OC(C)=O)C(=O)NCc1ccccc1 [Compound 8a, 1N,4N-dibenzyl-2,3-diacetoxy-(2S,3S)-butanediamide]	< 4.00
1N,4N-di[1-carbetoxy-3-methyl-(1S)-butyl]-2,3-dihydroxy-(2S,3S)-butanediamide [Compound 3c]	5.00
1N,4N-di[1-carbetoxy-2-(1H-3-indoyl)-(1S)-ethyl]-2,3-dihydroxy-(2S,3S)-butanediamide [Compound 3g]	< 4.00
O[C@H](CNCc1ccccc1)[C@H](O)CNCc1ccccc1 [Compound 22, 1,4-di(benzylamine)-(2R,3R)-butane-2,3-diol]	< 4.00
1N,4N-di[-carbetoxy-2-phenyl-(1S)-ethyl]-2,3-diacetoxy-(2S,3S)-butanediamide [Compound 10e]	4.30
CC(=O)O[C@@H](C(=O)NCc1ccccc1)[C@@H](OC(C)=O)C(=O)NCc1ccccc1 [Compound 20, 1N,4N-dibenzyl-2,3-diacetoxy-(2R,3R)-butanediamide]	< 4.00
O=C(NCc1ccccc1)[C@H](Cc1ccccc1)NC(=O)[C@@H](O)[C@H](O)C(=O)N[C@@H](Cc1ccccc1)C(=O)NCc1ccccc1 [Compound 15, 1N,4N-di[1-carbonylbenzylamine-2-phenyl-(1S)-ethyl]-2,3-dihydroxy-(2S,3S)-butanediamide]	< 4.00
CCOC(=O)[C@H](Cc1ccccc1)NC(=O)[C@H](OC(C)=O)[C@@H](OC(C)=O)C(=O)N[C@@H](Cc1ccccc1)C(=O)OCC [Compound 18, 1N,4N-di[1-carbetoxy-2-phenyl-(1S)-ethyl]-2,3-diacetoxy-(2R,3R)-butanediamide]	< 4.00
1N,4N-di[1-carbetoxy-2-phenyl-(1S)-ethyl]-2,3-dihydroxy-(2S,3S)-butanediamide [Compound 3e]	< 4.00
CCOC(=O)[C@H](C)NC(=O)[C@@H](O)[C@H](O)C(=O)N[C@@H](C)C(=O)OCC [Compound 3a, 1N,4N-di[1-carbetoxy-(1S)-ethyl]-2,3-dihydroxy-(2S,3S)-butanediamide]	< 4.00
O=C(NCc1ccccc1)[C@H](O)[C@@H](O)C(=O)NCc1ccccc1 [Compound 21, 1N,4N-dibenzyl-2,3-dihydroxy-(2R,3R)-butanediamide]	< 4.00
CCOC(=O)[C@H](Cc1ccccc1)NC(=O)[C@H](O)[C@@H](O)C(=O)N[C@@H](Cc1ccccc1)C(=O)OCC [Compound 19, 1N,4N-di[1-carbetoxy-2-phenyl-(1S)-ethyl]-2,3-dihydroxy-(2R,3R)-butanediamide]	< 4.00
NNC(=O)[C@H](Cc1ccccc1)NC(=O)[C@@H](O)[C@H](O)C(=O)N[C@@H](Cc1ccccc1)C(=O)NN [Compound 14e, 1N,4N-di[1-carbonylhydrazine-2-phenyl-(1S)-ethyl]-2,3-dihydroxy-(2S,3S)-butanediamide]	< 4.00
O=C(NCc1ccccc1)[C@@H](O)[C@H](O)C(=O)NCc1ccccc1 [Compound 1a, 1N,4N-dibenzyl-2,3-dihydroxy-(2S,3S)-butanediamide]	< 4.00
CCOC(=O)[C@@H](NC(=O)[C@@H](O)[C@H](O)C(=O)N[C@H](C(=O)OCC)[C@@H](C)CC)[C@@H](C)CC [Compound 3d, 1N,4N-di[1-carbetoxy-2-methyl-(1S,2S)-butyl]-2,3-dihydroxy-(2S,35)-butanediamide]	< 4.00
